From ChEMBL document CHEMBL5728846, “6H-thieno[2,3-e][1,2,4]triazolo[3,4-c][1,2,4]triazepine derivative” (2021) come the findings set out here.

The nature of this assay: NF-keppaB Inhibitory Activity Evaluation Test: A549/NF-κB-luc cells (available from Panomics, Cat No. LR0051) were prepared at 375,000 cells/mL in the culture medium. The 375,000 cells/mL A549/NF-κB-luc cell suspension was seeded at 80 μL each on a white 96-well plate (available from Greiner, Cat No. 655073). One hour after seeding the cells, 10 μL of 2% DMSO solution (control) and each compound solution in each concentration were added to each well of the 96-well plate. One hour after the addition of each compound solution, 10 ng/mL of the TNF-α solution (10 μL) was added to each well of the 96-well plate. Three hours after the addition of 10 ng/mL of the TNF-α solution, 100 μL of Steady-Glo reagent (available from Promega, Cat No. E2510) was added to each well of the 96-well plate. After 30 to 90 minutes of the addition of the Steady-Glo reagent, the luminescence intensity of each well was detected by EnVision multilabel counter (available from PerkinElmer).

Consider `Cc1sc2c(c1C)C(c1ccc(Cl)cc1)=NN(Cc1cccc(F)n1)c1nnc(C)n1-2`, for which half-maximal inhibition (IC50) was put at 33.6 nM.
